TGI data for 13 molecules are collected here from PubChem BioAssay (NCI).

Some test systems named below: A549 NSCLC; BT-549 breast; HL-60(TB) leukemia; MCF7 breast; MDA-MB-231 breast; MOLT-4 leukemia; OVCAR-4 ovarian; OVCAR-8 ovarian; PC-3 prostate; SF-539 CNS.
Assay in all cases: DTP human tumour cell line panel, 48 h

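Five concentrations, 48 hours, 96-well plates. TGI is the concentration that stops growth completely.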

Regarding `Cc1cc(C(C)(C)C)c(OCCCN2CCOCC2)c(C(C)(C)C)c1`, the TGI with A549 NSCLC turned out to be 32.5 µM; in the test on BT-549 breast, 31.9 µM; in the test on HL-60(TB) leukemia, 29 µM; in the test with MCF7 breast, 33.6 µM; with MDA-MB-231 breast it was 32.2 µM; with MOLT-4 leukemia, 33.7 µM. Also, the TGI in the test on OVCAR-4 ovarian was 31.5 µM; in the test on OVCAR-8 ovarian, 35.4 µM; in the test on PC-3 prostate, 29.9 µM; with SF-539 CNS, 33.7 µM.

For the molecule `Cc1ccc(N=Nc2cc(=O)[nH]c(=O)[nH]2)cc1C`, the TGI in the test on A549 NSCLC is 34.7 µM; in the test with BT-549 breast, 26.6 µM; with HL-60(TB) leukemia, 7.18 µM; with MCF7 breast, 29.4 µM; with MDA-MB-231 breast, 24.2 µM; in the test with MOLT-4 leukemia it was greater than 100 µM. The TGI in the test with OVCAR-4 ovarian amounted to 31.8 µM; with OVCAR-8 ovarian, 30.9 µM; in the test with PC-3 prostate, 11.7 µM; in the test with SF-539 CNS, 27.6 µM.

As to `O=C(O)c1cc2c(cc1CC(Cc1ccccc1)C(=O)O)CCC2` (centres undefined), the TGI in the test on A549 NSCLC, in the test with BT-549 breast, in the test with HL-60(TB) leukemia, in the test on MCF7 breast, in the test with MDA-MB-231 breast and in the test on MOLT-4 leukemia was greater than 100 µM throughout. Moreover, the TGI with OVCAR-4 ovarian, in the test on OVCAR-8 ovarian, in the test on PC-3 prostate and with SF-539 CNS was greater than 100 µM in each case.

As to `O=C(NC(Cc1c[nH]c2ccccc12)C(=O)O)/C(=C/c1ccccc1)NC(=O)c1ccccc1` (centres undefined), the TGI in the test on A549 NSCLC, in the test on BT-549 breast, in the test on HL-60(TB) leukemia, in the test on MCF7 breast, with MDA-MB-231 breast and in the test on MOLT-4 leukemia was greater than 100 µM each time. Moreover, the TGI in the test on OVCAR-4 ovarian, in the test with OVCAR-8 ovarian, in the test on PC-3 prostate and in the test with SF-539 CNS was greater than 100 µM throughout.

As to `CCOc1cc(C=Nc2ccc(Oc3ccc(Cl)cc3)c(Cl)c2)ccc1O`, the TGI in the test with A549 NSCLC was greater than 100 µM; in the test with BT-549 breast, 52 µM; with HL-60(TB) leukemia, 57.4 µM; with MCF7 breast, greater than 100 µM; with MDA-MB-231 breast it was 42.1 µM; in the test on MOLT-4 leukemia it was 67.3 µM. For the same molecule, the TGI was found to be 80.4 µM with OVCAR-4 ovarian, 65.4 µM in the test with OVCAR-8 ovarian, 88.7 µM with PC-3 prostate and 54.7 µM with SF-539 CNS.

For `Cc1cccc(-c2cc(=O)c3c(C)ccnc3[nH]2)c1`, the TGI is greater than 100 µM in the test with A549 NSCLC; greater than 100 µM in the test with BT-549 breast; 0.703 µM with HL-60(TB) leukemia; greater than 42.2 µM in the test with MCF7 breast; greater than 100 µM in the test on MDA-MB-231 breast; greater than 100 µM with MOLT-4 leukemia. In addition, the TGI in the test with OVCAR-4 ovarian, in the test on OVCAR-8 ovarian, in the test with PC-3 prostate and in the test with SF-539 CNS was greater than 100 µM in each case.

Turning to `Oc1cc(Br)cc2cc(Br)cnc12`, the TGI is greater than 100 µM in the test on A549 NSCLC; greater than 100 µM in the test on BT-549 breast; 0.654 µM in the test on HL-60(TB) leukemia; greater than 100 µM in the test with MCF7 breast; 88.2 µM with MDA-MB-231 breast; 16.1 µM in the test on MOLT-4 leukemia. In addition, the TGI is 9.59 µM with OVCAR-4 ovarian, greater than 100 µM in the test on OVCAR-8 ovarian, greater than 100 µM in the test with PC-3 prostate and greater than 100 µM in the test with SF-539 CNS.

On to `Fc1ccccc1C1SCC2=Nc3ccccc3CN21` (centres undefined), for which the TGI with A549 NSCLC, in the test on BT-549 breast, in the test with HL-60(TB) leukemia, in the test with MCF7 breast, with MDA-MB-231 breast and in the test with MOLT-4 leukemia was greater than 100 µM each time. The TGI with OVCAR-4 ovarian, in the test on OVCAR-8 ovarian, with PC-3 prostate and in the test with SF-539 CNS was greater than 100 µM in each case.

With `Cc1ccc2c3ccc4c(c3n(C)c2c1)C(=O)C=CC4=O`, the TGI was greater than 10 µM in the test with A549 NSCLC; greater than 7.22 µM in the test with BT-549 breast; 3.9 µM in the test with HL-60(TB) leukemia; greater than 6.18 µM with MCF7 breast; greater than 10 µM in the test on MDA-MB-231 breast; 2.61 µM in the test on MOLT-4 leukemia. The TGI was greater than 7.77 µM in the test with OVCAR-4 ovarian, greater than 10 µM with OVCAR-8 ovarian, greater than 10 µM with PC-3 prostate and greater than 9.21 µM in the test with SF-539 CNS.

As to `Cc1ccc2c(=O)c3c(O)c4c(cc3n(C)c2c1)OC(C)(C)C=C4`, the TGI in the test on A549 NSCLC, in the test with BT-549 breast, in the test with HL-60(TB) leukemia, with MCF7 breast, in the test on MDA-MB-231 breast and in the test with MOLT-4 leukemia was greater than 10 µM each time. In addition, the TGI in the test on OVCAR-4 ovarian, in the test with OVCAR-8 ovarian, in the test on PC-3 prostate and in the test with SF-539 CNS was greater than 10 µM each time.

For `Cc1cccc(/C=N/NC(=S)NC(C)(C)C)n1`, the TGI in the test on A549 NSCLC, with BT-549 breast, in the test on HL-60(TB) leukemia, in the test with MCF7 breast, with MDA-MB-231 breast and in the test on MOLT-4 leukemia was greater than 100 µM in each case. The TGI in the test on OVCAR-4 ovarian, with OVCAR-8 ovarian, with PC-3 prostate and in the test with SF-539 CNS was greater than 100 µM each time.

`Cn1cnc([N+](=O)[O-])c1Sc1nncc2[nH]cnc12`: the TGI in the test on A549 NSCLC, with BT-549 breast, in the test with HL-60(TB) leukemia, in the test on MCF7 breast, in the test with MDA-MB-231 breast and in the test on MOLT-4 leukemia was greater than 100 µM throughout. In addition, the TGI in the test on OVCAR-4 ovarian, in the test with OVCAR-8 ovarian, in the test on PC-3 prostate and in the test on SF-539 CNS was greater than 100 µM each time.

On to `C=C(Cl)C(=C)CCC(Cl)C(C)(C)Cl` (centres undefined), for which the TGI with A549 NSCLC, with BT-549 breast, in the test on HL-60(TB) leukemia, in the test with MCF7 breast, in the test on MDA-MB-231 breast and in the test with MOLT-4 leukemia was greater than 100 µM throughout. The TGI in the test with OVCAR-4 ovarian, in the test on PC-3 prostate and with SF-539 CNS was greater than 100 µM throughout.

What is called TGI is the concentration at which net growth stops.
